According to PubChem BioAssay (NCI):
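Protocol summary: plate cells (96-well), add compound at 5 concentrations, incubate 48 h, interpolate endpoints linearly. At the GI50, growth is halved. TGI is the concentration that stops growth completely.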

Key:
Assay in all cases: NCI anticancer screen, dose series, 48 h
[1] = tested on: OVCAR-8 ovarian
[2] = tested on: HOP-62 NSCLC
[3] = tested on: LOX IMVI melanoma
[4] = tested on: SW-620 colon
[5] = tested on: NCI-H23 lung
[6] = tested on: UACC-62 melanoma
[7] = tested on: IGROV1 ovarian
[8] = tested on: MCF7 breast
[9] = tested on: RPMI-8226 leukemia
[10] = tested on: TK-10 renal

SMILES	GI50 [1] [µM]	TGI [1] [µM]	GI50 [2] [µM]	TGI [2] [µM]	GI50 [3] [µM]	TGI [3] [µM]	GI50 [4] [µM]	TGI [4] [µM]	GI50 [5] [µM]	TGI [5] [µM]	GI50 [6] [µM]	TGI [6] [µM]	GI50 [7] [µM]	TGI [7] [µM]	GI50 [8] [µM]	TGI [8] [µM]	GI50 [9] [µM]	TGI [9] [µM]	GI50 [10] [µM]	TGI [10] [µM]
Cc1cccc2c(Nc3ccc(NS(C)(=O)=O)cc3)c3ccc([N+](=O)[O-])cc3nc12	1.3	6.42	0.373	4.87	0.409	2.13	0.87	3.23	1.25	4.31	0.773	3.01	0.954	3.65	0.0382	3.58	1.09	7.56	3.16	17.5
Nc1n[nH]c(N)c1N=Nc1ccc(O)cc1	18	> 100	31.8	> 100	4.09	53.6	26.3	84.8	19.1	62.3	11	36.4	20.6	81.4	23.5	90.8	14.4	54.3	25.7	70.4
Cc1ccc(N=C2SC(c3ccc(C)cc3)(c3ccc(C)cc3)c3ccccc32)cc1	–	> 100	–	> 100	–	> 100	–	> 100	–	> 100	–	> 100	–	> 100	–	> 100	–	> 100	–	> 100
CCN(CC)CCCC(C)Nc1c(-c2ccccc2)cnc2cc(Cl)ccc12 (stereo not given)	11.9	32.3	9.62	22.9	2.2	5.84	9.04	22.8	11	28.5	2.37	6.26	11.8	31.4	4.54	17.7	3.49	17.1	6.93	17.5
COc1cc(/C=C/[N+](=O)[O-])cc(OC)c1OC	3.04	12.1	3.34	13.6	1.39	2.91	1.71	4.16	2.41	6.44	1.72	3.49	2.45	7.61	3.08	14.6	3.14	8.59	2.49	6.07
CN(c1ccc(C#N)c(Cl)c1)C1CCC(NC(=O)c2ccc(N3CCN(C4CN(c5ccc6c(c5)C(=O)N(C5CCC(=O)NC5=O)C6=O)C4)CC3)cc2)CC1 (stereo not given)	> 100	> 100	> 100	> 100	> 100	> 100	> 100	> 100	> 100	> 100	> 100	> 100	> 100	> 100	> 100	> 100	> 100	> 100	> 100	> 100
O=C1CCC(N2C(=O)c3cccc(NCCCC4CCN(CCNC(=O)c5cc6c(o5)C(=O)c5ccccc5C6=O)CC4)c3C2=O)C(=O)N1 (stereo not given)	1.41	7.18	1.44	2.86	0.288	1.13	0.45	1.86	0.159	0.399	0.304	0.98	0.576	2.3	0.0102	0.215	1.7	20.9	2.25	4.4
O=C1c2ccccc2C(=O)N1C1(C(=O)NC2(C(=O)O)CCCC2)CCCC1	–	> 100	–	> 100	–	> 100	–	> 100	–	> 100	–	> 100	–	> 100	–	> 100	–	> 100	–	> 100
O=c1c(O)cccn1CCCN(CCCn1cccc(O)c1=O)CCn1cccc(O)c1=O	2.26	> 100	4.35	> 100	2.13	> 100	9.02	> 100	21.1	> 100	2.14	76	23.6	> 100	3.89	> 100	1.99	> 100	7.92	> 100
CC1=C(Cl)C[C@@H](/C(C)=C\Cl)O[C@@]1(O)C(Br)Br	–	> 100	–	> 100	–	> 100	–	> 100	–	> 100	–	> 100	–	> 100	–	49.3	–	65.8	–	> 100
N#CC(C#N)=C(N)/C(C#N)=C/c1ccc2[nH]ccc2c1	–	> 100	–	> 100	–	> 100	–	> 100	–	> 100	–	> 100	–	> 100	–	> 100	–	> 100	–	> 100
COc1ccc(Oc2ccccc2NC(=O)CNC(=O)c2cccc3ccccc23)cc1	1.15	> 25	0.717	> 25	1.34	> 25	0.678	> 25	1.28	> 25	0.559	> 25	1.57	> 25	0.259	> 25	1.13	8.45	2.15	> 25
